Test results published in US11198713B2, “Agents modulating beta-catenin functions and methods thereof” (FOG PHARMACEUTICALS, INC., priority 2017, dated 2021).
Converted amounts (≈) assume the structure as drawn. Like-named read-outs stand apart in the source and are kept apart here. One block for each molecule: values may come before it. Numbered stars: 1 amine (or outer) side, 2 acyl side, 3 side chain; on linkers, the order of the positions; unused ones are H or OH. Bridge positions count the residues as written; N and C are the ends. Square brackets hold non-standard residues; d marks the D form. Primed or numbered codes have the meaning given here. Ends that are not written are not given here. Peptide text beside a SMILES is read from it. MB = Monomer B = PyrS, Alloc-pyrrolidine stapling residue (allyl carbamate on pyrrolidine N); dαMeDab(Me) = CN(CC[C@@](C)(N[*:1])C(=O)[*:2])[*:3]; X1 = O=C([C@]1(N[*:1])CCN([*:3])C1)[*:2]; X2 = O=C(OCC=CCOC(=O)[*:2])[*:1]; R8 = C=CCCCCCC[C@@](C)(N)C(=O)O; S5 = C=CCCC[C@](C)(N)C(=O)O; PEG1′ = not defined here

Tests used:
[1] = Plasma PK in rats; type: in vivo; settings: IV 0.5 mg/kg, male Sprague-Dawley rats
Protocol: (§1) FIG. 6. Exemplary pharmacokinetic properties. Peptides were formulated in 10% DMSO:90% saline and dosed by IV at 0.5 mg/kg per compound in three male Sprague-Dawley rats. Serial bleed time-points were taken at 2 min, 6 min, 10 min, 15 min, 30 min, 1, 2, 4, 6, 8, 12 and 24 h and analyzed by quantitative LC/MS using a Thermo Q-Exactive Focus LC/MS/MS. Samples were prepared by protein precipitation with MeOH. Data were fit to a two-compartment model.
as §1, with “Various technologies can be utilized to assess properties of provided agents, e.g., stapled peptides, in accordance with the present disclosure. In some embodiments, plasma PK methods are used to assess” for “FIG. 6. Exemplary”, “In an exemplary assay, peptides” for “Peptides”, “model. […] Exemplary data are presented, e.g., in FIG. 6.” for “model.”

[2] = Solubility in DPBS (A280 of supernatant); type: physicochemical; settings: DPBS
Summary of the method: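 Dried peptide reconstituted in DPBS in triplicate, vortexed, sonicated and centrifuged. Supernatant A280 measured; concentration calculated using the tryptophan extinction coefficient.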

[3] = molecular target: T1, full-length beta-catenin (Axin site) (Homo sapiens, UniProt P35222); assay: Competition fluorescence polarization assay (Axin site probe); type: binding; settings: competition fluorescence polarization, Table 2; read-out: in vitro FP EC50
T1 construct: 15 nM full-length beta-catenin, 20 nM FITC labeled peptide in buffer
T1 sequence (P35222 1-781): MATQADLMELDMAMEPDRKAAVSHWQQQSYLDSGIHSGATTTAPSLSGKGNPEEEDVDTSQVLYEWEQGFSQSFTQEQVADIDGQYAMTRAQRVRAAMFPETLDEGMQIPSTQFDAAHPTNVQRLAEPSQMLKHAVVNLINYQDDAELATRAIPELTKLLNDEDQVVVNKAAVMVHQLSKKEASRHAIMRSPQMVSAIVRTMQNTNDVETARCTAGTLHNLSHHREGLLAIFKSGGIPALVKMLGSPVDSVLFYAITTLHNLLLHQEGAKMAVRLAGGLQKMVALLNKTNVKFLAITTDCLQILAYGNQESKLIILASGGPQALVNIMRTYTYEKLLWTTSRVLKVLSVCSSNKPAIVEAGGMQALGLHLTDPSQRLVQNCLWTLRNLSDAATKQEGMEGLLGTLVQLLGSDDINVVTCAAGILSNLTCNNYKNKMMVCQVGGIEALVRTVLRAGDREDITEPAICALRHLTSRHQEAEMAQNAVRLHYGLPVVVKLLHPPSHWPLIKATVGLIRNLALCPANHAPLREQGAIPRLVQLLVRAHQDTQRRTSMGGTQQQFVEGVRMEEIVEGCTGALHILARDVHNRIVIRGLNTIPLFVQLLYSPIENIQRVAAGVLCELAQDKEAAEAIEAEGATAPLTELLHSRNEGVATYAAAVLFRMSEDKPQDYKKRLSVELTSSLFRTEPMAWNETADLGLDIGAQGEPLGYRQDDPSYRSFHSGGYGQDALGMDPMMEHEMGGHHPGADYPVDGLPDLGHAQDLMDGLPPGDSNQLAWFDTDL
Summary of the method: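 Competition FP: 15 nM full-length β-catenin pre-incubated 5 min with 20 nM FITC-labelled stapled Axin-site peptide, then titrated peptide added (3-fold series from 5 μM) for 15 min in the dark. Buffer 50 mM Tris pH 8.0, 250 mM NaCl, 2% glycerol, 0.5 mM EDTA; duplicate reads.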

[4] = molecular target: T2, biotinylated beta-catenin (Homo sapiens, UniProt P35222); assay: Surface Plasmon Resonance (Biacore); type: binding
T2 sequence (P35222 1-781): T1 sequence (P35222 1-781)
Protocol: Additionally or alternatively, binding to beta-catenin may be measured by Surface Plasmon Resonance. In an exemplary assay, approximately 6 nmol dried peptide diluted in buffer (50 mM Tris pH 8.0, 300 mM NaCl, 2% glycerol, 0.5 mM TCEP, 0.5 mM EDTA, 0.005% Tween-20, 1 mg/mL CM Dextran, 0.02% w/v sodium azide) was assayed on a Biacore X100 using the Biacore Biotin CAPture Kit (GE Healthcare) and biotinylated beta-catenin. Results were analyzed using the Biacore X100 Evaluation Software. […] FPO217c (Isomer 2) bound to the armadillo domain of β-catenin with a Kd of 2 nM.

[5] = molecular target: T3, beta-catenin (Homo sapiens, UniProt P35222); settings: reported in Grossmann et al.; cited from earlier work
T3 sequence (P35222 1-781): T1 sequence (P35222 1-781)

[6] = molecular target: T4, full-length beta-catenin (UniProt P35222 2-781, limits assumed); assay: competition FP, displacement of a labeled probe from the axin site
T4 construct: mature; also called full-length ß-Catenin; β-catenin
T4 sequence (looked up): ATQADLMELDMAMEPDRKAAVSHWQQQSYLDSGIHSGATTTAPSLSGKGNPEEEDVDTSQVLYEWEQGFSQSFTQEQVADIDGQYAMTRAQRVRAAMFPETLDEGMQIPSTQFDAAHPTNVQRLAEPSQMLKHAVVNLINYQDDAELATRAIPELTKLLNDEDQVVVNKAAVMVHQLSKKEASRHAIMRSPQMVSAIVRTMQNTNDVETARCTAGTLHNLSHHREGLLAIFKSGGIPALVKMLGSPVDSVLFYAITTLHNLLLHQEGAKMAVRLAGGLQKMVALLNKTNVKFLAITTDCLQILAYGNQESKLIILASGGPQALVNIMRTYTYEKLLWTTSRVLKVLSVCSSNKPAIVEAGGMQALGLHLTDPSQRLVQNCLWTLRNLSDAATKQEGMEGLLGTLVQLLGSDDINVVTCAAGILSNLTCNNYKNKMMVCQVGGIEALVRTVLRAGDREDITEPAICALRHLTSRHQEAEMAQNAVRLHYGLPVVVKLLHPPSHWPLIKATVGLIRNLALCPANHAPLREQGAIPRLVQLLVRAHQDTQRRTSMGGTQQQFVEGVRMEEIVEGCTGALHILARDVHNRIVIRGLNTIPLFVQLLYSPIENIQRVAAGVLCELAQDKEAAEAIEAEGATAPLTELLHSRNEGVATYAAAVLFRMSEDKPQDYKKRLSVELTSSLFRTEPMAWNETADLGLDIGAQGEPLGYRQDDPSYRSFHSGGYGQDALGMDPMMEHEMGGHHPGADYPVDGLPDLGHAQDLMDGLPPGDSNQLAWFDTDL
Protocol: In some embodiments, a competition fluorescence polarization assay is used to assess binding of provided compounds to beta-catenin. In an exemplary procedure, solutions of provided compounds, e.g., provided stapled peptides, were prepared in a buffer (e.g., 50 mM Tris pH 8.0, 250 mM NaCl, 2% glycerol, 0.5 mM EDTA, 0.02% w/v sodium azide) using a 3-fold serial dilution from 5 µM. Probe solution (15 nM full-length ß-Catenin, 20 nM FITC labeled peptide in buffer) was prepared and incubated for a period of time, e.g., 5 minutes, and the a volume, e.g., 40 µL per well plated in suitable plate, e.g., a black polystyrene 384-well plate (Corning). Equal volume of the serial diluted peptide was added to the plate and incubated protected from light for 15 minutes prior to read. Reads were performed on a Spectramax M5 (Molecular Devices) in duplicate. Suitable probe was FITC-PEG1-PQ-S5-ILD-S5-HVRRVWR (SEQ ID NO: 1) (hydrocarbon staple formed by two S5 via olefin metathesis) and/or FITC-bA-PQ-S5-ILD-S5-HVRRVWR (SEQ ID NO: 3) (hydrocarbon staple formed by two S5 via olefin metathesis). […] Another peptide, FPO217c (Ac-AR_8ILDAHIM$B5$RVW (SEQ ID NO: 280), with N-terminal proline removed and valine replaced with isoleucine compared to FP0025c) was prepared.

[7] = molecular target: T4, full-length beta-catenin; assay: competition FP, grade of FP EC50 (+++: <=100 nM)
Summary of the method: (§2)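 Compound 3-fold serially diluted from 5 µM in Tris pH 8.0, 250 mM NaCl buffer, added to premixed 15 nM full-length β-catenin and 20 nM FITC-labelled stapled axin-site peptide probe. Incubated 15 min in the dark, polarization read in duplicate.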

[8] = molecular target: T4, full-length beta-catenin; assay: competition FP; control of Table 5
[9] = molecular target: T4, full-length beta-catenin; assay: competition FP, grade of FP EC50 (++: 100-500 nM)
Summary of the method: as §2

[10] = Table 3 Part A, read-out: Solubility in DPBS
[11] = Biacore, biotinylated beta-catenin, read-out: Kd
[12] = Table 3 Part A, read-out: Binding Kd

Molecule: CC[C@H](C)[C@@H]1NC(=O)[C@H](Cc2c[nH]cn2)NC(=O)[C@H](C)NC(=O)[C@H](CC(=O)O)NC(=O)[C@H](CC(C)C)NC(=O)[C@H]([C@@H](C)CC)NC(=O)[C@](C)(NC(=O)[C@H](C)NC(C)=O)CCN(C)C(=O)OCC=CCOC(=O)N2CC[C@@](C(=O)N[C@@H](CCCNC(=N)N)C(=O)N[C@H](C(=O)N[C@@H](Cc3c[nH]c4ccccc34)C(N)=O)C(C)C)(C2)NC1=O [FP0597c, Ac-A-MG-I-L-D-A-H-I-MB-R-V-W-NH2] (Ac-A[dαMeDab(Me)]ILDAHI[X1]RVW-NH2; linker 2-9 via X2)
plasma half-life compared with FP0217c (Isomer 2) [1]: shorter
solubility ([2]; Table 2, read-out: Solubility): 98 µM (≈ 158 µg/mL)
solubility thermodynamic [2, 10]: 98 µM (≈ 158 µg/mL)
solubility ([2]; read-out: solubility): 98 µM (≈ 158 µg/mL)
EC50 [3]: < 100 nM
Kd [4, 11]: 7 nM
Kd ([4]; Table 2, read-out: Kd by SPR): 4 nM
Kd [4, 12]: 4 nM

Molecule: Ac-PEG1-RRWPRS5ILDS5HVRRVWR (SEQ ID NO: 278) ({Ac-PEG1′}-RRWPR[S5]ILD[S5]HVRRVWR; staple 6-10) [StAx-35R, "3 amino acids were added to the N-terminus of the peptide and one other Q→R mutation was made ... the resulting peptide StAx-35R"]
affinity compared to StAx-33 [5]: reduced

Molecule: Ac-PA[R8]ILDAHV[MB]RVW-NH2 (staple 3-10) [FP0025c]
EC50 [6]: < 100 nM
FP EC50 [7]: ≤ 100 nM

The next lines start with the values.

half-life ([1]; rat, plasma): > 1 h
solubility ([2]; Table 2, read-out: Solubility): 7 µM (≈ 11.1 µg/mL)
solubility [2, 10]: 12 µM (≈ 19 µg/mL)
EC50 [3]: < 100 nM
Kd [4, 11]: 2 nM
Kd [4, 12]: 4 nM
Molecule: CC[C@H](C)[C@@H]1NC(=O)[C@H](Cc2c[nH]cn2)NC(=O)[C@H](C)NC(=O)[C@H](CC(=O)O)NC(=O)[C@H](CC(C)C)NC(=O)[C@H]([C@@H](C)CC)NC(=O)[C@](C)(NC(=O)[C@H](C)NC(C)=O)CCCCCCC=CCOC(=O)N2CC[C@@](C(=O)N[C@@H](CCCNC(=N)N)C(=O)N[C@H](C(=O)N[C@@H](Cc3c[nH]c4ccccc34)C(N)=O)C(C)C)(C2)NC1=O (single isomer, unassigned) [FPO217c Isomer 2, Ac-AR8ILDAHIMBRVW (SEQ ID NO: 280)]

EC50 [8]: ~100 nM
FP EC50 [9]: 100 to 500 nM
B1: FP0787s (peptide)
peptide: Ac-PQ[S5]ILD[S5]HVRRVWR-NH2
modifications: staple 3-7
SMILES: CC[C@H](C)[C@@H]1NC(=O)[C@@](C)(NC(=O)[C@H](CCC(N)=O)NC(=O)[C@@H]2CCCN2C(C)=O)CCCC=CCCC[C@@](C)(C(=O)N[C@@H](Cc2c[nH]cn2)C(=O)N[C@H](C(=O)N[C@@H](CCCNC(=N)N)C(=O)N[C@@H](CCCNC(=N)N)C(=O)N[C@H](C(=O)N[C@@H](Cc2c[nH]c3ccccc23)C(=O)N[C@@H](CCCNC(=N)N)C(N)=O)C(C)C)C(C)C)NC(=O)[C@H](CC(=O)O)NC(=O)[C@H](CC(C)C)NC1=O
notes: also called S5/S5
